The text below walks through data of the NIST ThermoML archive (doi:10.1016/j.jct.2011.06.007).

Numbers after ± are expanded uncertainties.

The data set can be described thus: activity coefficient (dimensionless); of the first substance listed, at infinite dilution; xn = mol fraction of the nth substance listed. The following applies: 101 kPa, Liquid, Chromatography, x1 = 0.

Consider `CC1CCCCC1` [methylcyclohexane] + CCCC[N+]1(C)CCCC1.N#C[B-](C#N)(C#N)C#N, for which the activity coefficient was found to be 11.9 ± 0.8 (318.15 K); 11 ± 0.8 (328.15 K); 10.5 ± 0.7 (338.15 K); 10.1 ± 0.7 (348.15 K); 9.38 ± 0.64 (358.15 K); 8.94 ± 0.61 (368.15 K).

Regarding `CCCCC` [pentane] + CCCC[N+]1(C)CCCC1.N#C[B-](C#N)(C#N)C#N, the activity coefficient (318.15 K) was 12.1 ± 0.8; the activity coefficient (328.15 K) came out at 11.2 ± 0.8; the activity coefficient (338.15 K) was found to be 10.5 ± 0.7; the activity coefficient (348.15 K) turned out to be 10.2 ± 0.7; the activity coefficient (358.15 K) amounted to 9.56 ± 0.65; the activity coefficient (368.15 K) was found to be 9.09 ± 0.62.

For the compound `CCCCCCCCC` [nonane] + CCCC[N+]1(C)CCCC1.N#C[B-](C#N)(C#N)C#N, the activity coefficient reads like this: (318.15 K) 46.2 ± 3.2; (328.15 K) 42.5 ± 2.9; (338.15 K) 38.2 ± 2.6; (348.15 K) 36.3 ± 2.5; (358.15 K) 32.6 ± 2.2; (368.15 K) 30.3 ± 2.1.

As for `CC(C)OC(C)C` [diisopropyl ether] + CCCC[N+]1(C)CCCC1.N#C[B-](C#N)(C#N)C#N, the activity coefficient is 6.08 ± 0.41 (318.15 K); 5.94 ± 0.4 (328.15 K); 5.91 ± 0.4 (338.15 K); 5.82 ± 0.4 (348.15 K); 5.75 ± 0.39 (358.15 K); 5.68 ± 0.39 (368.15 K).

For `COC(C)(C)C` [2-methoxy-2-methylpropane] + CCCC[N+]1(C)CCCC1.N#C[B-](C#N)(C#N)C#N, the activity coefficient (318.15 K) was determined as 2.37 ± 0.16; the activity coefficient (328.15 K) stood at 2.39 ± 0.16; the activity coefficient (338.15 K) amounted to 2.46 ± 0.17; the activity coefficient (348.15 K) was 2.48 ± 0.17; the activity coefficient (358.15 K) turned out to be 2.52 ± 0.17; the activity coefficient (368.15 K) came out at 2.55 ± 0.17.

With `CCCOCCC` [dipropyl ether] + CCCC[N+]1(C)CCCC1.N#C[B-](C#N)(C#N)C#N, the activity coefficient (318.15 K) is 5.78 ± 0.39; the activity coefficient (328.15 K) worked out at 5.65 ± 0.39; the activity coefficient (338.15 K) came out at 5.51 ± 0.38; the activity coefficient (348.15 K) amounted to 5.42 ± 0.37; the activity coefficient (358.15 K) came out at 5.33 ± 0.36; the activity coefficient (368.15 K) is 5.26 ± 0.36.

As to `C1CCCCC1` [cyclohexane] + CCCC[N+]1(C)CCCC1.N#C[B-](C#N)(C#N)C#N, the activity coefficient (318.15 K) turned out to be 8.42 ± 0.57; the activity coefficient (328.15 K) was determined as 7.8 ± 0.53; the activity coefficient (338.15 K) worked out at 7.45 ± 0.51; the activity coefficient (348.15 K) was determined as 7.23 ± 0.49; the activity coefficient (358.15 K) was 6.75 ± 0.46; the activity coefficient (368.15 K) was determined as 6.47 ± 0.44.

In the case of `CC(C)CC(C)(C)C` [2,2,4-trimethylpentane] + CCCC[N+]1(C)CCCC1.N#C[B-](C#N)(C#N)C#N, the activity coefficient came out at 27.5 ± 1.9 (318.15 K); 25.4 ± 1.7 (328.15 K); 23.5 ± 1.6 (338.15 K); 22.5 ± 1.5 (348.15 K); 20.9 ± 1.4 (358.15 K); 20 ± 1.4 (368.15 K).

On to `CO` [methanol] + CCCC[N+]1(C)CCCC1.N#C[B-](C#N)(C#N)C#N, for which the activity coefficient (318.15 K) worked out at 0.991 ± 0.062; the activity coefficient (328.15 K) is 0.912 ± 0.058; the activity coefficient (338.15 K) came out at 0.861 ± 0.055; the activity coefficient (348.15 K) worked out at 0.812 ± 0.053; the activity coefficient (358.15 K) is 0.753 ± 0.05; the activity coefficient (368.15 K) stood at 0.723 ± 0.048.

Regarding `CCC(=O)CC` [pentan-3-one] + CCCC[N+]1(C)CCCC1.N#C[B-](C#N)(C#N)C#N, the activity coefficient (318.15 K) was found to be 0.65 ± 0.044; the activity coefficient (328.15 K) came out at 0.664 ± 0.045; the activity coefficient (338.15 K) stood at 0.688 ± 0.046; the activity coefficient (348.15 K) came out at 0.71 ± 0.047; the activity coefficient (358.15 K) amounted to 0.719 ± 0.048; the activity coefficient (368.15 K) was determined as 0.732 ± 0.048.

As to `C1=CCCCC1` [cyclohexene] + CCCC[N+]1(C)CCCC1.N#C[B-](C#N)(C#N)C#N, the activity coefficient by setting is: (318.15 K) 4.09 ± 0.28; (328.15 K) 3.97 ± 0.27; (338.15 K) 3.93 ± 0.27; (348.15 K) 3.88 ± 0.26; (358.15 K) 3.73 ± 0.25; (368.15 K) 3.71 ± 0.25.
